These results are taken from patent publication US11203610B2, “2′3′ cyclic dinucleotides with phosphonate bond activating the sting adaptor protein” (INSTITUTE OF ORGANIC CHEMISTRY AND BIOCHEMISTRY ASCR, V.V.I., priority 2017, dated 2021).

The target of assay [1] is T1, AQ STING (G230A-R293Q) (Homo sapiens, UniProt Q86WV6, G230A/H232R/R293Q).
T1 construct: truncated human WT STING or AQ STING (amino acid residues 140-343); 8xHis (N, cleaved yes); SUMO (N, cleaved yes); made in house; host or cells: E. coli Rosetta-gami B (DE3)
The assay is described as follows: Differential Scanning Fluorimetry with AQ STING. The note with it: thermal shift vs STING apoprotein; 150 μM CDN; 0.1 mg/ml truncated human AQ STING; SYPRO Orange; read-out: DSF ΔTm (° C.) AQ STING. The class given is binding. Here is the method: (§1) WT STING and AQ STING Proteins
(§2) Purified PCR products were cleaved with restriction enzymes BamHI (cat. #R0136S, NEB, Ipswich, USA) and NotI (cat. #R0189S, NEB, Ipswich, USA) and cloned into the pSUMO vector linearized with the identical enzymes.
(§3) The resin was poured into a chromatography column, washed with 50 ml buffer A (50 mmol·l^−1 TrisCl (pH 8.0), 800 mmol·l^−1 NaCl, 3 mmol·l^−1 β-mercaptol; 10% glycerol; 20 mmol·l^−1 imidazole) and 8-His-SUMO tagged STING proteins were eluted with 15 ml buffer A containing 300 mmol·l^−1 imidazole. […] Proteins were concentrated with Amicon® Ultra-15 10 K device (cat. #UFC901008, Merck Millipore, Billerica, USA) and flash frozen in liquid N2.
(§4) Differential Scanning Fluorimetry with WT STING and AQ STING
(§5) 20 μL solutions of the reaction mixtures were pipetted in triplicates into 96 well optical reaction plates and thermal denaturation of samples were performed on real time PCR cycler (LightCycler® 480 Instrument II—Roche, Basel, Switzerland). The first derivative of the thermal denaturation curves was performed to calculate denaturing temperatures of STING—CDN complexes and STING apoproteins. The thermal shift for each CDN was calculated by subtracting the average denaturing temperature of STING apoprotein from the average denaturing temperature of STING CDN complex.
(DSF heats the sample and reads unfolding from a dye or from intrinsic fluorescence.)

In assay [2] the target is T2, WT STING (Homo sapiens, UniProt Q86WV6, H232R). The assay is described as follows: Digitonin assay using 293T wtSTING-FL reporter cells. The settings on record: 293T wtSTING-FL cells; 30 minutes in Digitonin buffer, then 5 hours; ISRE firefly luciferase reporter; 8-point dose-response curve; read-out: Digitonin assay EC50 (μmol · l^−1) WT STING. It is filed as cell-based. The source says: ISRE Reporter Plasmid (pGL64.27-4xISRE)
Two complementary oligonucleotides of the sequence […] […] […] […] […] The oligonucleotides were mixed in equal molar amounts, hybridized, and cleaved by restriction endonucleases HindIII (cat. #. R0104S, NEB, Ipswich, USA) and BglII (cat. #R0144S, NEB, Ipswich, USA). Ultimately, they were ligated into plasmid pGL4.27 (cat. #E6651, Promega, Madison, USA) linearized with the same enzymes. As result the sequence with four ISRE sites was placed upstream of the minimum promoter of firefly luciferase reporter gene.
After 5 minutes incubation at room temperature (RT), 250 μL of the mixture was added dropwise to the cells in one well. Cells were incubated 36 hours at 37° C. with 5% CO2, and then detached with 0.05% Trypsin and 0.22 g/L EDTA (both cat. #L0941, Biowest, Riverside, USA).
Transfected cells were seeded onto poly-D-lysine coated six well plates at density 50,000 cells per 1 cm^2 in DMEM medium with high glucose containing 10% heat inactivated FBS, 30 g/mL blasticidin (cat. #ant-bl-05, InvivoGen, San Diego, USA), 0.06 mg/ml Penicillin G and 0.1 mg/ml Streptomycin Sulfate (both cat. #. L0018, Biowest, Riverside, USA). The medium was replenished every 3-4 days until visible colonies of cells resistant to blasticidin were formed.
Blasticidin resistant cells stably expressing WT STING were further transfected with […] plasmid following the same procedure as described above. […] Homogeneous culture of stably double transfected cells was prepared by limiting dilution of cells in 96 well plates and wells with cells were selected that originated from a single cell.
The medium was removed next day and three fold serial dilutions of compounds in Digitonin buffer containing 50 mmol·l^−1 HEPES (cat. #H3375, Sigma Aldrich, Czech Republic) pH 7.0, 100 mmol·l^−1 KCl, 3 mmol·l^−1 MgCl2, 0.1 mmol·l^−1 DTT (cat. #D0632, Sigma Aldrich, Czech Republic), 85 mmol·l^−1 Sucrose (cat. #S7903, Sigma Aldrich, Czech Republic), 0.2% BSA (cat. #A2153, Sigma Aldrich, Czech Republic), 1 mmol·l^−1 ATP (cat. #A1852, Sigma Aldrich, Czech Republic), 0.1 mmol·l^−1 GTP (cat. #G8877, Sigma Aldrich, Czech Republic), and 10 μg/mL Digitonin A (cat. #D141, Sigma Aldrich, Czech Republic) were added to the cells. The buffer was removed after 30 minutes incubation at 37° C. with 5% CO2, the cells were washed once with 100 μl of cultivation medium, and 100 μl of medium was added to each well. The plates with cells were incubated for 5 hours at 37° C. with 5% CO2, 50 μl of the medium was removed and 30 μl of ONE-Glo™ Luciferase Assay System reagent (cat. #E6120, Promega, Madison, USA) was added to each well. Luminescence was read on Synergy H1 (Biotek, Winooski, USA).
For orientation: A reporter such as luciferase makes a cellular process visible.
Target sequence in this assay (Q86WV6 whole entry H232R): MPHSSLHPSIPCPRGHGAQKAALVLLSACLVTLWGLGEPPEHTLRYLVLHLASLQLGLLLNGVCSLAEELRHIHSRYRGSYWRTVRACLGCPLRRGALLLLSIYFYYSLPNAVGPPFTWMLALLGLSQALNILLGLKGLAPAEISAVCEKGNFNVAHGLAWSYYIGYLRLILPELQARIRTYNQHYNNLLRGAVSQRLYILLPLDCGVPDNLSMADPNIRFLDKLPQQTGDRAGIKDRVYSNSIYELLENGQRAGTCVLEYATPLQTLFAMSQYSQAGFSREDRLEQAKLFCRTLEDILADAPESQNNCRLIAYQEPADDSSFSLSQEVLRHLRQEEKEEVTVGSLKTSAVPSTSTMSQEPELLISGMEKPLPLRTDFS

Assay [3] has as its target T2, WT STING. The assay can be described thus: Differential Scanning Fluorimetry with WT STING. Also on record: truncated human WT STING or AQ STING (amino acid residues 140-343); 8xHis (N, cleaved yes); SUMO (N, cleaved yes); made in house; host or cells: E. coli Rosetta-gami B (DE3). The note with it: thermal shift vs STING apoprotein; 150 μM CDN; 0.1 mg/ml truncated human WT STING; SYPRO Orange; read-out: DSF ΔTm (° C.) WT STING. It is filed as binding. Here is the method:
as §1, §2, §3, §4, §5
Target sequence in this assay (Q86WV6 140-343 H232R): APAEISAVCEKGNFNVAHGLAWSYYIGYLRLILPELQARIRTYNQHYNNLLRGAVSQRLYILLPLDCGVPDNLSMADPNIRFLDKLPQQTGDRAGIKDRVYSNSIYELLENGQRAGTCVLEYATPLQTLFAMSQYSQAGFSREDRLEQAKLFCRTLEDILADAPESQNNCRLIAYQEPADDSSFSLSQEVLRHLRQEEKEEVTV

T1 sequence (Q86WV6 140-343 G230A/H232R/R293Q): as the sequence (Q86WV6 140-343 H232R) above, with G91A, R154Q counted along it

On to `Nc1nc2c(ncn2[C@@H]2O[C@@H]3COP(=O)(S)O[C@@H]4[C@@H](OCP(=O)(O)O[C@@H]2[C@@H]3O)O[C@@H](n2cnc3c(N)ncnc32)[C@@H]4O)c(=O)[nH]1` (stereo partly drawn) [Compound 39, (1R,6R,8R,9R,10S,15R,17R,18R)-17-(2-amino-6-oxo-6,9-dihydro-1H-purin-9-yl)-8-(6-amino-9H-purin-9-yl)-3,9,18-trihydroxy-12-sulfanyl-2,5,7,11,13,16-hexaoxa-3λ^5,12λ^5-diphosphatricyclo[13.2.1.0^6,10]octadecane-3,12-dione], for which the results for the ΔTm at 150 µM in assay [1] and in assay [3] were 17.2 °C and 11 °C, respectively. The concentration giving a half-maximal response (EC50) (usually the concentration that produces a half-maximal response) in assay [2] was 80 nM.

As to `Nc1nc2c(ncn2[C@@H]2O[C@@H]3COP(=O)(O)O[C@@H]4[C@@H](OCP(=O)(O)O[C@@H]2[C@@H]3O)O[C@@H](n2cnc3c(N)ncnc32)[C@@H]4O)c(=O)[nH]1` [Compound 40, (1R,6R,8R,9R,10S,15R,17R,18R)-17-(2-amino-6-oxo-6,9-dihydro-1H-purin-9-yl)-8-(6-amino-9H-purin-9-yl)-3,9,12,18-tetrahydroxy-2,5,7,11,13,16-hexaoxa-3λ^5,12λ^5-diphosphatricyclo[13.2.1.0^6,10]octadecane-3,12-dione], the values for the ΔTm at 150 µM in assay [1] and in assay [3] were 18.7 °C and 10.8 °C, respectively. In assay [2], the EC50 worked out at 20 nM.

`Nc1nc2c(ccn2[C@@H]2O[C@@H]3COP(=O)(O)O[C@@H]4[C@@H](OCP(=O)(O)O[C@@H]2[C@@H]3O)O[C@@H](n2cnc3c(N)ncnc32)[C@@H]4O)c(=O)[nH]1` [Compound 41, (1R,6R,8R,9R,10S,15R,17R,18R)-17-{2-amino-4-oxo-3H,4H,7H-pyrrolo[2,3-d]pyrimidin-7-yl}-8-(6-amino-9H-purin-9-yl)-3,9,12,18-tetrahydroxy-2,5,7,11,13,16-hexaoxa-3λ^5,12λ^5-diphosphatricyclo[13.2.1.0^6,10]octadecane-3,12-dione]: the ΔTm (usually the shift of the melting midpoint relative to a reference) at 150 µM in assay [1] was 9.1 °C; in assay [3] it was 1.7 °C. Besides, the EC50 in assay [2] was found to be 1900 nM.

In the case of `Cc1cn([C@@H]2O[C@@H]3COP(=O)(O)O[C@@H]4[C@@H](OCP(=O)(O)O[C@@H]2[C@@H]3O)O[C@@H](n2cnc3c(N)ncnc32)[C@@H]4O)c2nc(N)[nH]c(=O)c12` [Compound 42, (1R,6R,8R,9R,10S,15R,17R,18R)-17-{2-amino-5-methyl-4-oxo-3H,4H,7H-pyrrolo[2,3-d]pyrimidin-7-yl}-8-(6-amino-9H-purin-9-yl)-3,9,12,18-tetrahydroxy-2,5,7,11,13,16-hexaoxa-3λ^5,12λ^5-diphosphatricyclo[13.2.1.0^6,10]octadecane-3,12-dione], the ΔTm at 150 µM in assay [1] stood at 2.1 °C; in assay [3] it was 0.1 °C. Also, the EC50 in assay [2] stood at 45400 nM.

`Nc1nc2c(ncn2[C@@H]2O[C@@H]3OCP(=O)(O)O[C@H]4[C@@H](O)[C@H](n5cnc6c(N)ncnc65)O[C@@H]4COP(=O)(O)O[C@@H]2[C@@H]3O)c(=O)[nH]1` [Compound 43, (1R,6R,8R,9R,10S,15R,17R,18S)-17-(2-amino-6-oxo-6,9-dihydro-1H-purin-9-yl)-8-(6-amino-9H-purin-9-yl)-3,9,12,18-tetrahydroxy-2,4,7,11,14,16-hexaoxa-3λ^5,12λ^5-diphosphatricyclo[13.2.1.0^6,10]octadecane-3,12-dione]: the ΔTm at 150 µM in assay [1] is 16.6 °C; in assay [3] it was 8 °C. Moreover, the EC50 in assay [2] came to 5 nM.

Regarding `Nc1nc2c(ncn2[C@@H]2O[C@@H]3OCP(=O)(O)O[C@@H]4[C@@H](OCP(=O)(O)O[C@@H]2[C@@H]3O)O[C@@H](n2cnc3c(N)ncnc32)[C@@H]4O)c(=O)[nH]1` [Compound 44, (1R,6R,8R,9R,10S,15R,17R,18S)-17-(2-amino-6-oxo-6,9-dihydro-1H-purin-9-yl)-8-(6-amino-9H-purin-9-yl)-3,9,12,18-tetrahydroxy-2,5,7,11,14,16-hexaoxa-3λ^5,12λ^5-diphosphatricyclo[13.2.1.0^6,10]octadecane-3,12-dione], the ΔTm at 150 µM was found to be 10.3 °C in assay [1] and 2.6 °C in assay [3]. Also, the EC50 in assay [2] came out at 330 nM.

With `Nc1nc2c(ncn2[C@@H]2O[C@@H]3OCP(=O)(O)O[C@H]4[C@H](O)[C@H](n5cnc6c(N)ncnc65)O[C@@H]4COP(=O)(O)OC2C3O)c(=O)[nH]1` (stereo partly drawn) [Compound 45, (6R,8R,9S,10S,15R,17R)-17-(2-amino-6-oxo-6,9-dihydro-1H-purin-9-yl)-8-(6-amino-9H-purin-9-yl)-3,9,12,18-tetrahydroxy-2,4,7,11,14,16-hexaoxa-3λ^5,12λ^5-diphosphatricyclo[13.2.1.0^6,10]octadecane-3,12-dione], the ΔTm at 150 µM in assay [1] stood at 25.3 °C; in assay [3], 18.7 °C. In assay [2], the EC50 came to 10 nM.

For `Nc1nc2c(ncn2[C@@H]2O[C@@H]3OCP(=O)(O)O[C@H]4[C@@H](F)[C@H](n5cnc6c(N)ncnc65)O[C@@H]4COP(=O)(O)O[C@@H]2[C@@H]3O)c(=O)[nH]1` [Compound 46, (1R,6R,8R,9R,10R,15R,17R,18S)-17-(2-amino-6-oxo-6,9-dihydro-1H-purin-9-yl)-8-(6-amino-9H-purin-9-yl)-9-fluoro-3,12,18-trihydroxy-2,4,7,11,14,16-hexaoxa-3λ^5,12λ^5-diphosphatricyclo[13.2.1.0^6,10]octadecane-3,12-dione], the results for the ΔTm at 150 µM in assay [1] and in assay [3] were 26.2 °C and 18.7 °C, respectively. Further, the EC50 in assay [2] was determined as 10 nM.

On to `Nc1nc2c(ncn2[C@@H]2O[C@@H]3OCP(=O)(O)O[C@H]4[C@@H](O)[C@H](n5ccc6c(N)ncnc65)O[C@@H]4COP(=O)(O)O[C@@H]2[C@@H]3O)c(=O)[nH]1` [Compound 47, (1R,6R,8R,9R,10S,15R,17R,18S)-17-(2-amino-6-oxo-6,9-dihydro-1H-purin-9-yl)-8-{4-amino-7H-pyrrolo[2,3-d]pyrimidin-7-yl}-3,9,12,18-tetrahydroxy-2,4,7,11,14,16-hexaoxa-3λ^5,12λ^5-diphosphatricyclo[13.2.1.0^6,10]octadecane-3,12-dione], for which the ΔTm at 150 µM in assay [1] is 10.8 °C; in assay [3] it was 3.4 °C. The 50% effective concentration (EC50) in assay [2] is 100 nM.
